Entries after “also recorded” stand apart in the source; their conditions may differ.

A short description of data set [1]: Conversion of compounds in human plasma. Type of data set: in vitro ADME. The following applies: 1 μM test compound, 37° C., 0-6 hr; nd: not detected. The method, then:
Frozen human plasma was thawed and then centrifuged at 3200×g for 5 min to remove debris. The pH value of the supernatant was then measured and adjusted to 7.4±0.1 by adding 1% phosphoric acid or 1 N sodium hydroxide. 2 μL of dosing solution (50 μM for test compounds and 100 μM for positive control (propantheline bromide)) was mixed with 98 μL of blank plasma to achieve 1 μM test compound and 2 μM positive control of final concentration. The mixture was incubated, and samples were withdrawn from the incubations at the pre-determined time points of 0, 0.5, 1, 2, 4 and 6 hr (in duplicate) at 37° C. in water bath. At each corresponding time point 10 μL inhibitor and 20 μL ascorbic acid and 2 μL formic acid (20%) are added, and then added 400 μL of “stop solution” (200 ng/mL tolbutamide plus 200 ng/mL labetalol in 50% ACN/MeOH) to precipitate protein. The substance was mixed thoroughly and thereafter Centrifugated at 4,000 rpm for 20 minutes. Then an aliquot of supernatant (50 μL) was transferred from each well to a sample plate and mixed with 100 μL ultrapure water. The plate was shaked at 800 rpm for about 10 minutes before submitting to LC-MS/MS analysis.
(§1) Mass spectrometer (LC-MS/MS) Shimadzu LC 20-AD Shimadzu UHPLC API 4000. Analytical column ACQUITY UPLC® BEH Phenyl 1.7 μm 2.1×50 mm. Mobile phase A: 0.1% Formic Acid in Water. Mobile phase B: 0.1% Formic Acid in Acetonitrile. […] Flow rate 0.7 mL/min.

A further data set concerns human hepatocytes. In words: Conversion of compounds in human hepatocytes. Type of data set: in vitro ADME. The following applies: 1 μM compound, 37° C.; nd: not detected. How it is done: Incubations were conducted in 96-well plates at 1 μM compound concentration in duplicate. The hepatocyte cell concentration was 0.5×10^6 cells/mL used for final incubation at 37° C. in an incubator of 5% CO2 95% relative humidity. The medium control samples were included at 0 and 60 minutes in the absence of cells. The total organic concentration was 1% (DMSO 0.1%) in the final incubation. The controls, (7-ethoxycoumarin and 7-hydroxycoumarin) was incubated parallel at 3 μM. 2 μL of dosing solution (50 μM for test compounds and 100 μM for positive control) was mixed with 98 μL of 100 mM PBS to achieve 1 μM test compound and 2 μM positive control of final concentration. The mixture was incubated, and samples were withdrawn from the incubations at pre-determined time points of 0, 0.5, 1, 2, 4 and 6 hr (in duplicate) at 37° C. in water bath. To each sample, 10 μL inhibitor and 20 μL ascorbic acid and 2 μL formic acid (20%) were added followed by 400 μL of stop solution (200 ng/mL tolbutamide plus 200 ng/mL labetalol in 50% ACN/MeOH). The substance was mixed thoroughly and thereafter centrifuged at 4,000 rpm for 20 minutes. An aliquot of supernatant (50 μL) from each well were transferred to a sample plate and mixed with 100 μL ultrapure water. The plate was shaked at 800 rpm for about 10 minutes before submitting to LC-MS/MS analysis.
as §1

Data set [2] is described as follows: PK experiments in rats, plasma compound (I) after oral dosing. Type of data set: in vivo, Han Wistar rats. The following applies: oral dosing, rats. The method, then: Plasma was placed on water-ice following collection. Final storage at approximately −70° C.
Mobile phase B: Acetonitrile. […] Flow rate 0.5 mL/min.
The rats had unrestricted access to the diet.
Mobile phase B: Acetonitrile+0.2% formic acid. […] Flow rate 0.3 mL/min.
The rats received a standard laboratory diet Teklad 2014C. The rats had unrestricted access to the diet.

Another data set concerns the target human 5-HT2B receptor (Homo sapiens (Human), UniProt P41595). Kind of data set: 5-HT2B agonist activity assay (IP1 production, HTRF). Type of data set: cell-based. The following applies: read-out: 5-HT2B agonist activity, percent of control response. The method, then:
Evaluation of the agonist activity of compounds (I), (Ia), (Ib), (Ic), (Ia-iab), compound (2), compound (9), compound (15), compound (27), A2, A3, and A7 at the human 5-HT2B receptor was performed by Eurofins/Cerep (France) measuring the compound effects on inositol monophosphate (IP1) production using the HTRF detection method. Briefly, the human 5-HT2B receptor was expressed in transfected CHO cells. The cells were suspended in a buffer containing 10 mM Hepes/NaOH (pH 7.4), 4.2 mM KCl, 146 mM NaCl, 1 mM CaCl2, 0.5 mM MgCl2, 5.5 mM glucose and 50 mM LiCl, then distributed in microplates at a density of 4100 cells/well and incubated for 30 minutes at 37° C. in the presence of buffer (basal control), test compound or reference agonist. For stimulated control measurement, separate assay wells contained 1 μM 5-HT. Following incubation, the cells were lysed and the fluorescence acceptor (fluorophen D2-labeled IP1) and fluorescence donor (anti-IP1 antibody labeled with europium cryptate) were added. After 60 minutes at room temperature, the fluorescence transfer was measured at lambda(Ex) 337 nm and lambda(Em) 620 and 665 nm using a microplate reader (Rubystar, BMG). The IP1 concentration was determined by dividing the signal measured at 665 nm by that measured at 620 nm (ratio). The results were expressed as a percent of the control response to 1 μM 5-HT. The standard reference agonist was 5-HT, which was tested in each experiment at several concentrations to generate a concentration-response curve from which its EC50 value is calculated as described above for dopamine functional assays.
On the technique in general: In TR-FRET formats the signal depends on donor and acceptor labels being close together.

Chain of human 5-HT2B receptor (P41595 whole entry): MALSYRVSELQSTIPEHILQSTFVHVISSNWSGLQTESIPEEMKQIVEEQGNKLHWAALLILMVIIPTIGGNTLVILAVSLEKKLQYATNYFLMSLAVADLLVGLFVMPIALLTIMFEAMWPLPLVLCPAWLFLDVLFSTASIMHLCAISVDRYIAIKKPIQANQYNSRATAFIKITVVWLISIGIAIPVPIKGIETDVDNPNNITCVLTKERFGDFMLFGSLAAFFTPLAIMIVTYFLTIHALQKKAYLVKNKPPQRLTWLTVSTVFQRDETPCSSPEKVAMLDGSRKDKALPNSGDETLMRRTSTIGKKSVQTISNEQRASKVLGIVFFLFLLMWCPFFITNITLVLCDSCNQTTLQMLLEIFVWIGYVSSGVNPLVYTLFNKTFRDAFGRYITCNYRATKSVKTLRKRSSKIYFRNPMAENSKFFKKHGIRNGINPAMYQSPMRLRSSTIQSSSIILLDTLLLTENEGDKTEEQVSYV

Turning to `CCCN1CCC[C@@H]2Cc3c(ccc(OCc4ccccc4)c3O[C@@H]3O[C@H](C(=O)OCc4ccccc4)[C@@H](OC(=O)C(C)(C)C)[C@H](OC(=O)C(C)(C)C)[C@H]3OC(=O)C(C)(C)C)C[C@H]21` [Compound (5), (2S,3R,4S,5S,6S)-2-(((4aR,10aR)-7-(benzyloxy)-1-propyl-1,2,3,4,4a,5,10,10a-octahydrobenzo[g]quinolin-6-yl)oxy)-6-((benzyloxy)carbonyl)tetrahydro-2H-pyran-3,4,5-triyl tris(2,2-dimethylpropanoate)], the “Observed metabolite, Incubation in human plasma” value in data set [1] is “Compound (24)”. Further, the “Observed metabolite, Incubation in human hepatocytes” value in the data set on human hepatocytes is recorded as “Compound (24)”.
Consider `CCCN1CCC[C@@H]2Cc3c(ccc(OC)c3O[C@@H]3O[C@H](C(=O)OC)[C@@H](OC(=O)C(C)(C)C)[C@H](OC(=O)C(C)(C)C)[C@H]3OC(=O)C(C)(C)C)C[C@H]21` [Compound (22), (2S,3S,4S,5R,6S)-2-((methoxy)carbonyl)-6-(((4aR,10aR)-7-methoxy-1-propyl-1,2,3,4,4a,5,10,10a-octahydrobenzo[g]quinolin-6-yl)oxy)tetrahydro-2H-pyran-3,4,5-triyl tris(2,2-dimethylpropanoate)], for which, in data set [1], the “Observed metabolite, Incubation in human plasma” value is “Compound (21)”. Further, the “Observed metabolite, Incubation in human hepatocytes” value in the data set with human hepatocytes was “Compound (21)”.
`CCCN1CCC[C@@H]2Cc3c(ccc(OC)c3O[C@@H]3O[C@H](C(=O)OCc4ccccc4)[C@@H](OC(=O)C(C)(C)C)[C@H](OC(=O)C(C)(C)C)[C@H]3OC(=O)C(C)(C)C)C[C@H]21` [Compound (20), (2S,3S,4S,5R,6S)-2-((benzyloxy)carbonyl)-6-(((4aR,10aR)-7-methoxy-1-propyl-1,2,3,4,4a,5,10,10a-octahydrobenzo[g]quinolin-6-yl)oxy)tetrahydro-2H-pyran-3,4,5-triyltris(2,2-dimethylpropanoate)]: the “Observed metabolite, Incubation in human plasma” value in data set [1] is on record as “Compound (21)”. Also, the “Observed metabolite, Incubation in human hepatocytes” value in the data set with human hepatocytes is listed as “Compound (21)”.
Regarding `CCCN1CCC[C@@H]2Cc3c(ccc(O[C@@H]4O[C@H](C(=O)O)[C@@H](O)[C@H](O)[C@H]4O)c3O[C@@H]3O[C@H](C(=O)O)[C@@H](O)[C@H](O)[C@H]3O)C[C@H]21` [(Id-iab), (2S,2′S,3S,3′S,4S,4′S,5R,5′R,6S,6′S)-6,6′-(((4aR,10aR)-1-propyl-1,2,3,4,4a,5,10,10a-octahydrobenzo[g]quinoline-6,7-diyl)bis(oxy))bis(3,4,5-trihydroxytetrahydro-2H-pyran-2-carboxylic acid)], in data set [2], the “Observed metabolite, In vivo PK study after oral dosing (rats)” value is “Compound (I)”. Further, in data set [1], the “Observed metabolite, Incubation in human plasma” value is “Compound (I)”. In addition, the “Observed metabolite, Incubation in human hepatocytes” value in the data set on human hepatocytes was “Compound (I)”.
In the case of `CCCN1CCC[C@@H]2Cc3c(ccc(OC)c3O)C[C@H]21` [Compound A7, (4aR,10aR)-7-methoxy-1-propyl-1,2,3,4,4a,5,10,10a-octahydrobenzo[g]quinolin-6-ol], at human 5-HT2B receptor, the activity at 10 µM was found to be 27%. Also, the “Observed metabolite, In vivo PK study after oral dosing (rats)” value in data set [2] is recorded as “Compound (I)”. Also, in the data set with human hepatocytes, the “Observed metabolite, Incubation in human hepatocytes” value was “Compound (I)”.
On to `CCCN1CCC[C@@H]2Cc3c(ccc(OCc4ccccc4)c3O[C@@H]3O[C@H](C(=O)OC)[C@@H](OC(=O)C(C)(C)C)[C@H](OC(=O)C(C)(C)C)[C@H]3OC(=O)C(C)(C)C)C[C@H]21` [Compound (25), (2S,3R,4S,5S,6S)-2-(((4aR,10aR)-7-(benzyloxy)-1-propyl-1,2,3,4,4a,5,10,10a-octahydrobenzo[g]quinolin-6-yl)oxy)-6-(methoxycarbonyl)tetrahydro-2H-pyran-3,4,5-triyl tris(2,2-dimethylpropanoate)], for which, in data set [1], the “Observed metabolite, Incubation in human plasma” value was “Compound A2,; also recorded: Compound (24)”. Further, in the data set on human hepatocytes, the “Observed metabolite, Incubation in human hepatocytes” value is reported as “Compound A2,; also recorded: Compound (24)”.
Consider `CCCN1CCC[C@@H]2Cc3c(ccc(OCc4ccccc4)c3O[C@@H]3O[C@H](C(=O)OC)[C@@H](OC(C)=O)[C@H](OC(C)=O)[C@H]3OC(C)=O)C[C@H]21` [Compound (1), (2S,3R,4S,5S,6S)-2-(((4aR,10aR)-7-(benzyloxy)-1-propyl-1,2,3,4,4a,5,10,10a-octahydrobenzo[g]quinolin-6-yl)oxy)-6-(methoxycarbonyl)tetrahydro-2H-pyran-3,4,5-triyl triacetate], for which the “Observed metabolite, Incubation in human plasma” value in data set [1] is “Compound A2,; also recorded: compound (2)”. Also, the “Observed metabolite, Incubation in human hepatocytes” value in the data set on human hepatocytes is listed as “Compound A2,; also recorded: Compound (4)”.
For `CCCN1CCC[C@@H]2Cc3c(ccc(OCc4ccccc4)c3O[C@@H]3O[C@H](C(=O)OCC)[C@@H](OC(C)=O)[C@H](OC(C)=O)[C@H]3OC(C)=O)C[C@H]21` [Compound (10), (2S,3R,4S,5S,6S)-2-(((4aR,10aR)-7-(benzyloxy)-1-propyl-1,2,3,4,4a,5,10,10a-octahydrobenzo[g]quinolin-6-yl)oxy)-6-(ethoxycarbonyl)tetrahydro-2H-pyran-3,4,5-triyl triacetate], the “Observed metabolite, Incubation in human plasma” value in data set [1] is “Compound A2,; also recorded: Compound (4)”. Besides, the “Observed metabolite, Incubation in human hepatocytes” value with human hepatocytes is recorded as “Compound A2,; also recorded: Compound (4)”.
In the case of `CCCN1CCC[C@@H]2Cc3c(ccc(OCc4ccccc4)c3O[C@@H]3O[C@H](C(=O)OCC)[C@@H](OC(=O)C(C)(C)C)[C@H](OC(=O)C(C)(C)C)[C@H]3OC(=O)C(C)(C)C)C[C@H]21` [Compound (13), (2S,3R,4S,5S,6S)-2-(((4aR,10aR)-7-(benzyloxy)-1-propyl-1,2,3,4,4a,5,10,10a-octahydrobenzo[g]quinolin-6-yl)oxy)-6-(ethoxycarbonyl)tetrahydro-2H-pyran-3,4,5-triyl tris(2,2-dimethylpropanoate)], the “Observed metabolite, Incubation in human hepatocytes” value in the data set on human hepatocytes is “Compound (14)”.

Source of the values: patent publication US12384765B2, “Catecholamine prodrugs for use in the treatment of Parkinson's Disease” (H. Lundbeck A/S, priority 2019, dated 2025).
